Assay [1] has as its system Rab10 pThr73. Briefly: Rab10 Thr73 dephosphorylation (immunoblot) in LRRK2^G2019S MEFs. The assay is classed as cell-based. The following applies: Mus musculus, read-out: pRab10 inhibited in LRRK2^G2019S MEFs. On the procedure: (§1) The second-generation PROTACs were tested in parallel with the first generation PROTACs SD75, SD82, and SD100. The compounds were tested at 33 nM or […] concentrations for 4 hours or 24 hours, running two biological replicates per condition and achieving quantifications representative of both replicates. Analysis by quantitative immunoblotting was performed with readouts of the total LRRK2 (antibody recognizes epitope in C-terminus of protein), Rab10 pThr73 (physiological substrate) and LRRK2 pSer935 (biomarker phosphorylation site).
(§2) Primary MEFs were generated as described in a previous study (Wiggin et al., Mol. Cell Biol. 2002 April; 22(8):2871-81.). Briefly, the uterine horn was collected from adult female mice at day E12.5 and transferred to a 10 cm tissue culture dish containing cold PBS. Two forceps were used to tear the yolk sacs to isolate each embryo. Forceps were cleaned thoroughly with 70% ethanol between each embryo isolation. The embryos were culled, and a tissue piece was collected in a PCR tube for genotyping. The red tissue of the embryo, which grows to become the heart and liver, was removed. The remainder of the embryo was minced with a scalpel blade and incubated with 7.5 ml trypsin-EDTA solution for 10 minutes in a 37° C. tissue culture CO2 incubator. The dish was removed from the incubator and checked under a light microscope for single cells. 7.5 ml complete media was added to the trypsinised cells, and the cell suspension was transferred to a 15 ml Falcon tube, centrifuged at 1200 rpm for 5 minutes at room temperature. The trypsin was aspirated, the cell pellet was resuspended in 5 ml fresh complete media, and the cell suspension was plated in a 60 mm tissue culture dish and incubated in a 37° C., 5% CO2 tissue culture incubator. The MEFs at this stage were considered as passage 0 and were passaged and expanded for experimental use once the genotype was confirmed by allelic sequencing and immunoblotting. MEFs were cultured in Dulbecco's modified Eagle medium (DMEM) containing 10% (v/v) fetal bovine serum (FBS), 2 mM L-glutamine, 100 U/ml penicillin, and 100 μg/ml streptomycin supplemented with 1× non-essential amino acids and 1 mM sodium pyruvate.
Culturing and passaging of adherent cell lines were carried out using aseptic technique in CL1 or CL2 (for PBMC isolation) biological safety cabinets. All cells were incubated in a 37° C. incubator with 5% CO2. Cell lines were regularly tested for mycoplasma contamination. For western blot assay, the cells were seeded in 6-well plates. […] The cells were immediately placed on ice and were scraped and collected into 1.5 ml Eppendorf tubes. Cell lysates were incubated on ice for 10 minutes prior to centrifugation at 15,000 g at 4° C. for 15 minutes. The cell pellet was discarded, and supernatant was collected for analysis by quantitative immunoblotting. For long term storage, the supernatant was flash frozen and stored at −80° C. Protein concentrations of cell lysates were determined using the Bradford assay.
Cell lysates containing a quarter of a volume of 4× NuPAGE LDS sample buffer (NP0007) supplemented with 5% β-mercaptoethanol, were heated at 95° C. for 5 minutes. 15 to 20 μg of samples were loaded onto pre-cast 4-12% Bis-Tris midi 20W or 26W gels (Thermofisher Scientific®, Cat #WG1402BOX or WG1403BOX) and resolved at 130 V for 2 hours with NuPAGE MOPS SDS running buffer (Thermofisher Scientific® Cat #NP0001-02). Proteins were electrophoretically transferred onto a 0.45 μm nitrocellulose membrane (GE Healthcare, Amersham Protran® Supported 0.45 mm NC) at 90 V for 90 min on ice in transfer buffer (48 mM Tris base and 39 mM glycine supplemented with 20% methanol). The transferred membrane was blocked with 5% (w/v) skim milk powder dissolved in tris-buffered saline with tween (TBS-T) (50 mM Tris base, 150 mM sodium chloride (NaCl), 0.1% (v/v) Tween-20) at room temperature for 1 hour.
A general note: Immunoblotting shows a protein as a band on a membrane.

Assay [2] deals with Rab10 pThr73. Kind of assay: Rab10 Thr73 dephosphorylation (immunoblot) in WT MEFs. Particulars: Mus musculus, read-out: pRab10 inhibited in WT MEFs. The assay is classed as cell-based, mouse. As to the method: as §1, with “Western blot degradation assays for the LRRK2 protacs were performed with WT and PD-associated LRRK2 [G2019S] mouse embryonic fibroblasts (MEFs). The second-generation” for “The second-generation”
as §2
Culturing and passaging of adherent cell lines were carried out using aseptic technique in CL1 or CL2 (for PBMC isolation) biological safety cabinets. All cells were incubated in a 37° C. incubator with 5% CO2. Cell lines were regularly tested for mycoplasma contamination. For western blot assay, the cells were seeded in 6-well plates. After treating with testing compounds at indicated concentrations and time period, the media was removed and the cells were washed with PBS and lysed in 100 μl ice-cold complete lysis buffer containing 50 mM Tris-HCl pH 7.4, 1 mM EGTA, 10 mM 2-glycerophosphate, 50 mM sodium fluoride, 5 mM sodium pyrophosphate, 270 mM sucrose, supplemented with 1 μg/ml microcystin-LR, 1 mM sodium orthovanadate, complete EDTA-free protease inhibitor cocktail (Roche) and 1% (v/v) Triton X-100. The cells were immediately placed on ice and were scraped and collected into 1.5 ml Eppendorf tubes. Cell lysates were incubated on ice for 10 minutes prior to centrifugation at 15,000 g at 4° C. for 15 minutes. The cell pellet was discarded, and supernatant was collected for analysis by quantitative immunoblotting. For long term storage, the supernatant was flash frozen and stored at −80° C. Protein concentrations of cell lysates were determined using the Bradford assay.
Cell lysates containing a quarter of a volume of 4× NuPAGE LDS sample buffer (NP0007) supplemented with 5% β-mercaptoethanol, were heated at 95° C. for 5 minutes. […]

For assay [3], the system named is Rab10 pThr73. Kind of assay: Rab10 Thr73 dephosphorylation (immunoblot) in LRRK2^G2019S MEFs. The assay is classed as cell-based, mouse. Particulars: Mus musculus, read-out: pRab10 inhibited in LRRK2^G2019S MEFs.

For the compound `CNc1nc(Nc2ccc(C(=O)N3CCN(CC4CC[C@H](CSC(C)(C)C(NC(=O)C5(F)CC5)C(=O)N5C[C@H](O)C[C@H]5C(=O)NCc5ccc(-c6scnc6C)cc5)C4)CC3)cc2OC)ncc1Cl` (stereo in doubt) [XL02093, (2S,4R)-1-((S)-3-((((1S,3S)-3-((4-(4-((5-chloro-4-(methylamino)pyrimidin-2-yl)amino)-3-methoxybenzoyl)piperazin-1-yl)methyl)cyclopentyl)methyl)thio)-2-(1-fluorocyclopropane-1-carboxamido)-3-methylbutanoyl)-4-hydroxy-N-(4-(4-methylthiazol-5-yl)benzyl)pyrrolidine-2-carboxamide], the figures for the inhibition at 0.033 µM in assay [1] (33 nM/4 h treatment) and in assay [2] (33 nM/4 h treatment) were 20 to 50% and 20 to 40%, respectively. Further, the inhibition at 1 µM in assay [2] (1 μM/4 h treatment) lay within 75 to 90%; in assay [3] (1 μM/4 h treatment), 80 to 100%.

Take `CNc1nc(Nc2ccc(C(=O)N3CCN(CCOCCOCCN4CCN(c5ccc6c(c5)C(=O)N(C5CCC(=O)NC5=O)C6=O)CC4)CC3)cc2OC)ncc1Cl` (stereo not shown) [SD10, 5-(4-(2-(2-(2-(4-(4-((5-chloro-4-(methylamino)pyrimidin-2-yl)amino)-3-methoxybenzoyl)piperazin-1-yl)ethoxy)ethoxy)ethyl)piperazin-1-yl)-2-(2,6-dioxopiperidin-3-yl)isoindoline-1,3-dione]: the inhibition at 0.033 µM in assay [1] (33 nM/4 h treatment) was 0 to 60%; in assay [1] (33 nM/24 h treatment), 0 to 70%; in assay [2] (33 nM/4 h treatment), 0 to 25%; in assay [2] (33 nM/24 h treatment), 10 to 40%. The inhibition at 1 µM in assay [2] (1 μM/4 h treatment) lay in the range of 18 to 90%; in assay [2] (1 μM/24 h treatment) it was 30 to 90%; in assay [3] (1 μM/4 h treatment) it was 30 to 95%; in assay [3] (1 μM/24 h treatment) it was 30 to 100%.

`CNc1nc(Nc2ccc(C(=O)N3CCN(CCCN4CCN(c5ccc6c(c5)C(=O)N(C5CCC(=O)NC5=O)C6=O)CC4)CC3)cc2OC)ncc1Cl` (stereo not shown) [SD11, 5-(4-(3-(4-(4-((5-chloro-4-(methylamino)pyrimidin-2-yl)amino)-3-methoxybenzoyl)piperazin-1-yl)propyl)piperazin-1-yl)-2-(2,6-dioxopiperidin-3-yl)isoindoline-1,3-dione]: the inhibition at 0.033 µM in assay [1] (33 nM/4 h treatment) lay within 0 to 60%; in assay [1] (33 nM/24 h treatment) it was 0 to 70%; in assay [2] (33 nM/4 h treatment), 0 to 25%; in assay [2] (33 nM/24 h treatment), 10 to 40%. The inhibition at 1 µM in assay [2] (1 μM/4 h treatment) was 18 to 90%; in assay [2] (1 μM/24 h treatment) it was 30 to 90%; in assay [3] (1 μM/4 h treatment), 30 to 95%; in assay [3] (1 μM/24 h treatment) it was 30 to 100%.

As to `CNc1nc(Nc2ccc(C(=O)N3CCN(CCOCCOCCOc4cc(-c5scnc5C)ccc4CNC(=O)[C@@H]4C[C@@H](O)CN4C(=O)[C@@H](NC(=O)C4(F)CC4)C(C)(C)C)CC3)cc2OC)ncc1Cl` [SD12, (2S,4R)—N-(2-(2-(2-(2-(4-(4-((5-chloro-4-(methylamino)pyrimidin-2-yl)amino)-3-methoxybenzoyl)piperazin-1-yl)ethoxy)ethoxy)ethoxy)-4-(4-methylthiazol-5-yl)benzyl)-1-((S)-2-(1-fluorocyclopropane-1-carboxamido)-3,3-dimethylbutanoyl)-4-hydroxypyrrolidine-2-carboxamide], the inhibition at 0.033 µM in assay [1] (33 nM/4 h treatment) was 0 to 60%; in assay [1] (33 nM/24 h treatment), 0 to 70%; in assay [2] (33 nM/4 h treatment), 0 to 25%; in assay [2] (33 nM/24 h treatment), 10 to 40%. Also, the inhibition at 1 µM was 18 to 90% in assay [2] (1 μM/4 h treatment), 30 to 90% in assay [2] (1 μM/24 h treatment), 30 to 95% in assay [3] (1 μM/4 h treatment) and 30 to 100% in assay [3] (1 μM/24 h treatment).

The values above are taken from patent US20260001875A1, “AMINOPYRIMIDINYL DERIVATIVES FOR THE TREATMENT OF PARKINSON'S DISEASE” (UNIVERSITY OF DUNDEE, priority 2022, published 2026).
